Test results as given in patent US9284333B2, “Fused pyrroledicarboxamides and their use as pharmaceuticals” (SANOFI, priority 2012, dated 2016).
pIC50: −log10 of the molar value.

Molecular target: Human TASK-1 channels (Homo sapiens (Human), UniProt O14649)
Assay: Determination of the activity on the TASK-1 channel in Xenopus oocytes (two-microelectrode voltage clamp)
Format: cell-based
Conditions: for pIC50: human TASK-1 expressed in Xenopus oocytes, room temperature, read-out: IC50 value for TASK-1 inhibition
How it was run: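 Xenopus oocytes were injected with human TASK-1 cRNA and recorded two days later by two-microelectrode voltage clamp, holding at −90 mV with 500 ms steps to 40 mV. Superfusion used ND96, pH 7.4, at room temperature, with rising compound concentrations; percentage inhibition of control current was fitted to a dose-response curve for IC50.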

Chain of Human TASK-1 channels (O14649 whole entry): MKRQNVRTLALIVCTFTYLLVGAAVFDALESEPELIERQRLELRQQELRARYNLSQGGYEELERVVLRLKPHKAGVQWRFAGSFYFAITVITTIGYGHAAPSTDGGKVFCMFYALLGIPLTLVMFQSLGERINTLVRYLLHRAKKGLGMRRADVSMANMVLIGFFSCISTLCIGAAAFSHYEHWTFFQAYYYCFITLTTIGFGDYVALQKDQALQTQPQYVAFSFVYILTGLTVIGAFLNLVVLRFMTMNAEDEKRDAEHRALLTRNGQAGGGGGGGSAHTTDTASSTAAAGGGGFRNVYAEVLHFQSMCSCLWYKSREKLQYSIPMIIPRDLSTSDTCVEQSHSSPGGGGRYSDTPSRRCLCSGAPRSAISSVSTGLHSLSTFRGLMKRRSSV

Row | Molecule | pIC50 | other results
1 | 3,4-Dihydro-1H-pyrrolo[2,1-c][1,4]oxazine-6,8-dicarboxylic acid 6-[(1H-indol-6-ylmethyl)-amide] 8-[((R)-1-phenyl-propyl)-amide] [16je] |  | TASK-1 inhibition [%] at 5 μM (compound concentration 5 μM): 91%
2 | CC[C@@H](NC(=O)c1cc(C(=O)N2CCC[C@@H]2C)n2c1COCC2)c1ccc(C(F)(F)F)c(Cl)c1 [16c, 6-((S)-2-Methyl-pyrrolidine-1-carbonyl)-3,4-dihydro-1H-pyrrolo[2,1-c][1,4]oxazine-8-carboxylic acid [(R)-1-(3-chloro-4-trifluoromethyl-phenyl)-propyl]-amide] | 7.89 | 
3 | CC[C@@H](NC(=O)c1cc(C(=O)N2CCC[C@@H]2C)n2c1COCC2)c1ccc(C(F)(F)F)cc1Cl [16cq, 6-((S)-2-Methyl-pyrrolidine-1-carbonyl)-3,4-dihydro-1H-pyrrolo[2,1-c][1,4]oxazine-8-carboxylic acid [(R)-1-(2-chloro-4-trifluoromethyl-phenyl)-propyl]-amide] | 6.52 | 
4 | CC[C@@H](NC(=O)c1cc(C(=O)N2CCN(C)CC2c2ccccc2)n2c1COCC2)c1ccccc1 (stereo partly drawn) [16em, 6-(4-Methyl-2-phenyl-piperazine-1-carbonyl)-3,4-dihydro-1H-pyrrolo[2,1-c][1,4]oxazine-8-carboxylic acid ((R)-1-phenyl-propyl)-amide] | 6.22 | 
5 | CC[C@@H](NC(=O)c1cc(C(=O)N(C)[C@@H](C)C(=O)N(C)C)n2c1COCC2)c1ccccc1 [16rk, 3,4-dihydro-1H-pyrrolo[2,1-c][1,4]oxazine-6,8-dicarboxylic acid 6-[((S)-1-dimethylcarbamoyl-ethyl)methyl-amide] 8-[((R)-1-phenyl-propyl)-amide]] |  | inhibition at 10 µM (compound concentration 10 μM (footnote a)): 70%
6 | CC[C@@H](NC(=O)c1cc(C(=O)N2CCCC2c2cc(C)no2)n2c1COCC2)c1ccccc1 (stereo partly drawn) [16eq, 6-[2-(3-Methyl-isoxazol-5-yl)-pyrrolidine-1-carbonyl]-3,4-dihydro-1H-pyrrolo[2,1-c][1,4]oxazine-8-carboxylic acid ((R)-1-phenyl-propyl)-amide] | 6.32 | 
7 | CC[C@@H](NC(=O)c1cc(C(=O)N2CCC[C@@H]2C)n2c1COCC2)c1ncccc1OC [16ao, 6-((S)-2-Methyl-pyrrolidine-1-carbonyl)-3,4-dihydro-1H-pyrrolo[2,1-c][1,4]oxazine-8-carboxylic acid [(R)-1-(3-methoxy-pyridin-2-yl)-propyl]-amide] |  | inhibition at 5 µM (compound concentration 5 μM): 83%
8 | CC[C@@H](NC(=O)c1cc(C(=O)N2CCCC2(C)C)n2c1COCC2)c1ccccc1 [16fb, 6-(2,2-Dimethyl-pyrrolidine-1-carbonyl)-3,4-dihydro-1H-pyrrolo[2,1-c][1,4]oxazine-8-carboxylic acid ((R)-1-phenyl-propyl)-amide] | 6.89 | 
9 | CC[C@@H](NC(=O)c1cc(C(=O)N[C@H](C)c2ccc(F)cc2)n2c1COCC2)c1ccc(OC)nc1 [16du] | 6.66 | 
10 | O=C(NC(CC(F)(F)F)c1ccccc1)c1cc(C(=O)N2CCCC2)n2c1COCC2 (stereo not shown) [16dj, 6-(Pyrrolidine-1-carbonyl)-3,4-dihydro-1H-pyrrolo[2,1-c][1,4]oxazine-8-carboxylic acid (3,3,3-trifluoro-1-phenyl-propyl)-amide] | 5.72 | 
11 | CC[C@@H](NC(=O)c1cc(C(=O)N2CCCC2)n2c1COCC2)c1ccc(F)cc1F [16de] | 7.31 | 
12 | CC[C@@H](NC(=O)c1cc(C(=O)N2CCC[C@@H]2C)n2c1COCC2)c1ccc(OC(F)(F)F)cc1 [16aw, 6-((S)-Methyl-pyrrolidine-1-carbonyl)3,4-dihydro-1H-pyrrolo[2,1-c][1,4]oxazine-8-carboxylic acid [(R)-1-(4-trifluoromethoxy-phenyl)-propyl]-amide] | 6.55 | 
13 | CC[C@@H](NC(=O)c1cc(C(=O)N2CCC[C@@H]2C)n2c1COCC2)c1cnc(C(F)(F)F)c(F)c1 [16ck, 6-((S)-2-Methyl-pyrrolidine-1-carbonyl)-3,4-dihydro-1H-pyrrolo[2,1-c][1,4]oxazine-8-carboxylic acid [(R)-1-(5-fluoro-6-trifluoromethyl-pyridin-3-yl)-propyl]-amide] | 6.08 | 
14 | CC[C@@H](NC(=O)c1cc(C(=O)N2CCC[C@@H]2C)n2c1COCC2)c1ccc(C#N)cc1Cl [16bb, 6-((S)-2-Methyl-pyrrolidine-1-carbonyl)-3,4-dihydro-1H-pyrrolo[2,1-c][1,4]oxazine-8-carboxylic acid [(R)-1-(2-chloro-4-cyano-phenyl)-propyl]-amide] | 6.10 | 
15 | CC[C@@H](NC(=O)c1cc(C(=O)N2CCC[C@@H]2C(C)OC)n2c1COCC2)c1ccccc1 (stereo partly drawn) [16ez, 6-[(R)-2-(1-Methoxy-ethyl)-pyrrolidine-1-carbonyl]-3,4-dihydro-1H-pyrrolo[2,1-c][1,4]oxazine-8-carboxylic acid ((R)-1-phenyl-propyl)-amide] | 6.30 | 
16 | CC[C@@H](NC(=O)c1cc(C(=O)N2CC[C@H](F)C2)n2c1COCC2)c1ccccc1 [16fn, 6-((S)-3-Fluoro-pyrrolidine-1-carbonyl)-3,4-dihydro-1H-pyrrolo[2,1-c][1,4]oxazine-8-carboxylic acid ((R)-1-phenyl-propyl)-amide] | 6.80 | 
17 | CC[C@@H](NC(=O)c1cc(C(=O)N2CCC[C@@H]2C)n2c1COCC2)c1cc(F)c(C#N)c(F)c1 [16ca, 6-((S)-2-Methyl-pyrrolidine-1-carbonyl)-3,4-dihydro-1H-pyrrolo[2,1-c][1,4]oxazine-8-carboxylic acid [(R)-1-(4-cyano-3,5-difluoro-phenyl)-propyl]-amide] | 6.47 | 
18 | CC[C@@H](NC(=O)c1cc(C(=O)N2CC[C@H](OCC(C)C)C2)n2c1COCC2)c1ccccc1 [16fg, 6-((S)-3-Isobutoxy-pyrrolidine-1-carbonyl)-3,4-dihydro-1H-pyrrolo[2,1-c][1,4]oxazine-8-carboxylic acid ((R)-1-phenyl-propyl)-amide] | 5.89 | 

Now from value to molecule, other results behind:

Row | pIC50 | Molecule | other results
19 | 6.11 | CC[C@@H](NC(=O)c1cc(C(=O)N(C)Cc2ccccn2)n2c1COCC2)c1ccccc1 [16gw, 3,4-Dihydro-1H-pyrrolo[2,1-c][1,4]oxazine-6,8--dicarboxylic acid 6-(methyl-pyridin-2-ylmethyl-amide) 8-[((R)-1-phenyl-propyl)-amide]] | 
20 | 6.34 | 5,6,7,8-Tetrahydro-indolizine-1,3-dicarboxylic acid 3-[(5-fluoro-pyridin-3-ylmethyl)-amide] 1-[((R)-1-phenyl-propyl)-amide] [16nb] | 
21 | 6.44 | CC[C@@H](NC(=O)c1cc(C(=O)N[C@H](CC)c2cnccn2)n2c1COCC2)c1ccccc1 [16hw, 3,4-Dihydro-1H-pyrrolo[2,1-c][1,4]oxazine-6,8-dicarboxylic acid 8-[((R)-1-phenyl-propyl)-amide] 6-[((R)-1-pyrazin-2-yl-propyl)-amide]] | 
22 | 7.40 | CC[C@@H](NC(=O)c1cc(C(=O)N2CCC[C@@H]2C)n2c1COCC2)c1cc(F)ccc1Cl [16w, 6-((S)-2-Methyl-pyrrolidine-1-carbonyl)-3,4-dihydro-1H-pyrrolo[2,1-c][1,4]oxazine-8-carboxylic acid [(R)-1-(2-chloro-5-fluoro-phenyl)-propyl]-amide] | 
23 | 6.92 | CC[C@@H](NC(=O)c1cc(C(=O)NC(C)c2cnc(OC)cn2)n2c1COCC2)c1ccccc1 (stereo partly drawn) [16iv, 3,4-Dihydro-1H-pyrrolo[2,1-c][1,4]oxazine-6,8-dicarboxylic acid 6-{[1-(5-methoxy-pyrazin-2-yl)-ethyl]-amide} 8-[((R)-1-phenyl-propyl)-amide]] | 
24 | 6.25 | CC[C@@H](NC(=O)c1cc(C(=O)NC(C)c2ncccn2)n2c1COCC2)c1ccccc1 (stereo partly drawn) [16hd, 3,4-Dihydro-1H-pyrrolo[2,1-c][1,4]oxazine-6,8-dicarboxyli cacid 8-[((R)-1-phenyl-propyl)-amide] 6-[(1-pyrimidin-2-yl-ethyl)-amide]] | 
25 | 6.51 | CC[C@@H](NC(=O)c1cc(C(=O)NCc2cnccn2)n2c1COCC2)c1ccccc1 [16gt, 3,4-Dihydro-1H-pyrrolo[2,1-c][1,4]oxazine-6,8-dicarboxylic acid 8-[((R)-1-phenyl-propyl)-amide] 6-[(pyrazin-2-ylmethyl)-amide]] | 
26 | 6.64 | CC[C@@H](NC(=O)c1cc(C(=O)N2CCC[C@@H]2C)n2c1COCC2)c1ccc(Cl)s1 [16rb, 6-((S)-2-Methyl-pyrrolidine-1-carbonyl)-3,4-dihydro-1H-pyrrolo[2,1-c][1,4]oxazine-8-carboxylic acid [(R)-1-(5-chloro-thiophen-2-yl)-propyl]-amide] | 
27 | 6.21 | CC[C@H](NC(=O)c1cc(C(=O)N[C@H](CC)c2ncccn2)c2n1CCOC2)c1ccccc1 [16kb, 3,4-Dihydro-1H-pyrrolo[2,1-c][1,4]oxazine-6,8-dicarboxylic acid 6-[((S)-1-phenyl-propyl)-amide] 8-[((R)-1-pyrimidin-2-yl-propyl)-amide]] | 
28 | 6.64 | CC[C@@H](NC(=O)c1cc(C(=O)N2CCC[C@@H]2CC(=O)OC(C)C)n2c1COCC2)c1ccccc1 [16fo, {(R)-1-[8-((R)-1-Phenyl-propylcarbamoyl)-3,4-dihydro-1H-pyrrolo[2,1-c][1,4]oxazine-6-carbonyl]-pyrrolidin-2-yl}-acetic acid isopropyl ester] | 
29 | 6.82 | CC[C@@H](NC(=O)c1cc(C(=O)N[C@H](C)c2ccc(F)cc2)n2c1CSCC2)c1ccccc1 [16la, 3,4-Dihydro-1H-pyrrolo[2,1-c][1,4]thiazine-6,8-dicarboxylic acid 6-{[(R)-1-(4-fluoro-phenyl)-ethyl]-amide} 8-[((R)-1-phenyl-propyl)-amide]] | 
30 | 7.19 | CC[C@@H](NC(=O)c1cc(C(=O)N[C@H](CC)c2ncccn2)c2n1CCOC2)c1ccc(C(F)(F)F)cc1 [16lb, 3,4-Dihydro-1H-pyrrolo[2,1-c][1,4]oxazine-6,8-dicarboxylic acid 8-[((R)-1-pyrimidin-2-yl-propyl)-amide] 6-{[(R)-1-(4-trifluoromethyl-phenyl)-propyl]-amide}] | 
31 | 6.47 | CC[C@@H](NC(=O)c1cc(C(=O)NCC(C)C)n2c1COCC2)c1ccccc1 [16gf, 3,4-Dihydro-1H-pyrrolo[2,1-c][1,4]oxazine-6,8-dicarboxylic acid 6-isobutylamide 8-[((R)-1-phenyl-propyl)-amide]] | 
